The text below walks through data of ChEMBL document CHEMBL4823282, “Novel Broad-Spectrum Antimicrobial Peptide Derived from Anoplin and Its Activity on Bacterial Pneumonia in Mice” (J Med Chem, 2021).

pIC50: −log10 of the molar value. Converted amounts (≈) assume the structure as drawn. Where a SMILES comes first, the peptide text is derived from it.

One series concerns Klebsiella pneumoniae. Briefly: Antibacterial activity against Klebsiella pneumoniae ATCC 700603 incubated for 18 hrs by CLSI based broth dilution method. In kind it is functional.
The next series relates to Bacillus subtilis. Briefly: Antibacterial activity against Bacillus subtilis ATCC 23857 incubated for 18 hrs by CLSI based broth dilution method. In kind it is functional.
In series [1] the test system is Pseudomonas aeruginosa. Briefly: Synergistic antibacterial activity against Pseudomonas aeruginosa ATCC 27853 at 2 times MIC incubated for 18 to 24 hrs in presence of 2 times MIC of rifampicin by broth microdilution assay based checkerboard assay. The format is functional. The following applies: time 18-24 hrs.
The test system of series [2] is Pseudomonas aeruginosa. Briefly: Antibacterial activity against Pseudomonas aeruginosa ATCC 27853 incubated for 18 hrs by CLSI based broth dilution method. In kind it is functional.
Series [3] relates to Staphylococcus epidermidis. The series is described as follows: Antibacterial activity against Staphylococcus epidermidis ATCC 12228 incubated for 18 hrs by CLSI based broth dilution method. The format is functional.
Series [4] can be described thus: Cytotoxicity against human glomerular mesangial cells incubated for 12 hrs by MTT assay. The format is cell-based. The following applies: Glomerular mesangial cell. A general note: Formazan colour is commonly taken as a measure of viable cells.
The subject of a further series is Escherichia coli. Briefly: Antibacterial activity against Escherichia coli ATCC 25922 incubated for 18 hrs by CLSI based broth dilution method. The format is functional.
Series [5] relates to Pseudomonas aeruginosa. The series is described as follows: Synergistic antibacterial activity against Pseudomonas aeruginosa ATCC 27853 at 2 times MIC incubated for 18 to 24 hrs in presence of 2 times MIC of polymyxin B by broth microdilution assay based checkerboard assay. The format is functional. The note with it: time 18-24 hrs. On the technique in general: In broth dilution the organism is exposed to a series of concentrations in liquid medium.

For a further series, the system named is Acinetobacter baumannii. Briefly: Antibacterial activity against Acinetobacter baumannii ATCC 19606 incubated for 18 hrs by CLSI based broth dilution method. In kind it is functional. The note with it: ATCC 19606 = CIP 70.34 = JCM 6841.
For the next series, the system named is Enterococcus faecalis. Briefly: Antibacterial activity against Enterococcus faecalis ATCC 29212 incubated for 18 hrs by CLSI based broth dilution method. In kind it is functional.
The subject of another series is Erythrocyte. The series is described as follows: Hemolytic activity in BALB/C mouse erythrocytes incubated for 1 hr by absorbance method. The format is ADME, cell-based.
The subject of another series is Staphylococcus aureus. Briefly: Antibacterial activity against Staphylococcus aureus ATCC 25923 incubated for 18 hrs by CLSI based broth dilution method. In kind it is functional.
The nature of series [6]: Selectivity ratio of MHC10 for BALB/C mouse erythrocytes to MIC for gram-negative bacteria. The format is toxicity.
In series [7] the test system is Bacteria. The series is described as follows: Antibacterial activity against Gram-positive bacteria incubated for 18 hrs by CLSI based broth dilution method. The format is functional.
The next series deals with Fungi. The series is described as follows: Antibacterial activity against fungi incubated for 18 hrs by CLSI based broth dilution method. The format is functional.
A short description of series [8]: Selectivity ratio of MHC10 for BALB/C mouse erythrocytes to MIC for gram positive bacteria. The format is toxicity.
Series [9] relates to Bacteria. The series is described as follows: Antibacterial activity against Gram-negative bacteria incubated for 18 hrs by CLSI based broth dilution method. The format is functional.
In series [10] the test system is Bacteria. Briefly: Antibacterial activity against bacteria incubated for 18 hrs by CLSI based broth dilution method. The format is functional.
Series [11] is described as follows: Selectivity ratio of MHC10 for BALB/C mouse erythrocytes to MIC for fungi. In kind it is toxicity.
A short description of series [12]: Selectivity ratio of MHC10 for BALB/C mouse erythrocytes to MIC for bacteria. In kind it is toxicity.

By MIC is commonly meant the least concentration at which growth counts as inhibited. Low values mean greater potency, high ones weaker potency. What is called pIC50 is the negative decadic logarithm of the IC50, by convention in mol/L. Higher therefore signals a low IC50. As to `C[C@@H](O)[C@H](NC(=O)[C@H](CCCCN)NC(=O)[C@H](Cc1c[nH]c2ccccc12)NC(=O)[C@H](CCCNC(=N)N)NC(=O)[C@H](CCCCN)NC(=O)[C@H](Cc1ccccc1)NC(=O)[C@H](Cc1ccccc1)NC(=O)CN)C(=O)N[C@@H](Cc1ccccc1)C(=O)N[C@@H](Cc1ccccc1)C(N)=O` (H-GFFKRWKTFF-NH2), the MIC is 32 µM (≈ 43.6 µg/mL) against Klebsiella pneumoniae; 16 µM (≈ 21.8 µg/mL) in the series with Bacillus subtilis; 16 µM (≈ 21.8 µg/mL) against Pseudomonas aeruginosa [2]; 4 µM (≈ 5.45 µg/mL) in [3]; 16 µM (≈ 21.8 µg/mL) against Escherichia coli; 64 µM (≈ 87.2 µg/mL) in the series on Acinetobacter baumannii. Besides, the MIC against Enterococcus faecalis came out at 64 µM (≈ 87.2 µg/mL); with Staphylococcus aureus, 16 µM (≈ 21.8 µg/mL); in the series with Bacteria [7] it was 16 µM (≈ 21.8 µg/mL); in the series with Fungi, 19 µM (≈ 25.9 µg/mL); against Bacteria [9] it was 22.6 µM (≈ 30.8 µg/mL); against Bacteria [10] it was 19 µM (≈ 25.9 µg/mL). Further, the FIC came to 0.3125 with Pseudomonas aeruginosa [1] and 0.25 in the series on Pseudomonas aeruginosa [5]. Moreover, the pIC50 in series [4] was 4.32. The MHC10 entry with Erythrocyte is recorded as “>= 512 uM”. Moreover, the selectivity ratio in series [6] amounted to 22.6; in series [11] it was 26.9; in [12], 26.9. Further, the selectivity ratio at 18 h in series [8] was 32.
For `CC(C)C[C@H](NC(=O)[C@H](CC(C)C)NC(=O)[C@@H](NC(=O)[C@H](CCCCN)NC(=O)[C@H](Cc1c[nH]c2ccccc12)NC(=O)[C@H](CCCNC(=N)N)NC(=O)[C@H](CCCCN)NC(=O)[C@H](CC(C)C)NC(=O)[C@H](CC(C)C)NC(=O)CN)[C@@H](C)O)C(N)=O` (H-GLLKRWKTLL-NH2), the MIC against Klebsiella pneumoniae amounted to 64 µM (≈ 78.5 µg/mL); with Bacillus subtilis, 128 µM (≈ 157 µg/mL); against Pseudomonas aeruginosa [2] it was 64 µM (≈ 78.5 µg/mL); in [3], 16 µM (≈ 19.6 µg/mL); with Escherichia coli, 64 µM (≈ 78.5 µg/mL); in the series with Acinetobacter baumannii it was 256 µM (≈ 314 µg/mL). Also, the MIC in the series with Enterococcus faecalis was 256 µM (≈ 314 µg/mL); in the series with Staphylococcus aureus it was 128 µM (≈ 157 µg/mL); against Bacteria [7], 90.5 µM (≈ 111 µg/mL); against Fungi it was 64 µM (≈ 78.5 µg/mL); against Bacteria [9] it was 45.3 µM (≈ 55.6 µg/mL); in the series on Bacteria [10], 64 µM (≈ 78.5 µg/mL). Moreover, the FIC was determined as 0.5625 in the series with Pseudomonas aeruginosa [1] and 0.3125 with Pseudomonas aeruginosa [5]. Moreover, the pIC50 in series [4] was no more than 3.29. For the same compound, the MHC10 entry with Erythrocyte is “>= 512 uM”. For the same compound, the selectivity ratio came out at 11.3 in series [6], 8 in series [11] and 8 in series [12]. For the same compound, the selectivity ratio at 18 h in series [8] worked out at 5.66.
`CC[C@H](C)[C@H](NC(=O)[C@H](CCCNC(=N)N)NC(=O)[C@H](CCCCN)NC(=O)[C@H](Cc1ccccc1)NC(=O)[C@H](Cc1c[nH]c2ccccc12)NC(=O)CN)C(=O)N[C@@H](CCCCN)C(=O)N[C@H](C(=O)N[C@@H](Cc1ccccc1)C(=O)N[C@@H](Cc1c[nH]c2ccccc12)C(N)=O)[C@@H](C)O` (H-GWFKRIKTFW-NH2): the MIC stood at 32 µM (≈ 43.8 µg/mL) in the series with Klebsiella pneumoniae; 4 µM (≈ 5.47 µg/mL) in the series with Bacillus subtilis; 16 µM (≈ 21.9 µg/mL) with Pseudomonas aeruginosa [2]; 4 µM (≈ 5.47 µg/mL) in series [3]; 16 µM (≈ 21.9 µg/mL) against Escherichia coli; 64 µM (≈ 87.5 µg/mL) against Acinetobacter baumannii. Besides, the MIC stood at 64 µM (≈ 87.5 µg/mL) against Enterococcus faecalis; 16 µM (≈ 21.9 µg/mL) with Staphylococcus aureus; 11.3 µM (≈ 15.5 µg/mL) against Bacteria [7]; 16 µM (≈ 21.9 µg/mL) with Fungi; 16 µM (≈ 21.9 µg/mL) with Bacteria [10]. The FIC in the series with Pseudomonas aeruginosa [1] is on record as 0.3125; in the series with Pseudomonas aeruginosa [5], 0.25. Also, the pIC50 in series [4] was 4.01. This compound gave an MHC10 in the series on Erythrocyte of 384 µM. Besides, the selectivity ratio in [6] is 17; in series [11], 24; in [12] it was 24. Also, in series [8], the selectivity ratio at 18 h is 34.
For `CC(C)C[C@H](NC(=O)[C@H](Cc1c[nH]c2ccccc12)NC(=O)CN)C(=O)N[C@@H](CCCCN)C(=O)N[C@@H](CCCNC(=N)N)C(=O)N[C@@H](Cc1c[nH]c2ccccc12)C(=O)N[C@@H](CCCCN)C(=O)N[C@H](C(=O)N[C@@H](CC(C)C)C(=O)N[C@@H](Cc1c[nH]c2ccccc12)C(N)=O)[C@@H](C)O` (H-GWLKRWKTLW-NH2), the MIC in the series on Klebsiella pneumoniae is 16 µM (≈ 22 µg/mL); against Bacillus subtilis it was 16 µM (≈ 22 µg/mL); with Pseudomonas aeruginosa [2], 16 µM (≈ 22 µg/mL); in series [3], 32 µM (≈ 43.9 µg/mL); against Escherichia coli, 16 µM (≈ 22 µg/mL); against Acinetobacter baumannii it was 32 µM (≈ 43.9 µg/mL). Further, the MIC came out at 64 µM (≈ 87.9 µg/mL) against Enterococcus faecalis; 16 µM (≈ 22 µg/mL) in the series on Staphylococcus aureus; 26.9 µM (≈ 36.9 µg/mL) in the series with Bacteria [7]; 20.8 µM (≈ 28.5 µg/mL) in the series with Fungi; 16 µM (≈ 22 µg/mL) against Bacteria [9]; 20.8 µM (≈ 28.5 µg/mL) with Bacteria [10]. Further, the FIC with Pseudomonas aeruginosa [1] is listed as 0.3125; in the series with Pseudomonas aeruginosa [5] it was 0.25. Moreover, the pIC50 in [4] was 3.98. In addition, in the series on Erythrocyte, the MHC10 was 320 µM. Besides, the selectivity ratio was 20 in [6], 15.4 in series [11] and 15.4 in series [12]. In addition, the selectivity ratio at 18 h in [8] was determined as 11.9.
Take `CC[C@H](C)[C@H](NC(=O)[C@H](CCCNC(=N)N)NC(=O)[C@H](CCCCN)NC(=O)[C@H](Cc1c[nH]c2ccccc12)NC(=O)[C@H](Cc1c[nH]c2ccccc12)NC(=O)CN)C(=O)N[C@@H](CCCCN)C(=O)N[C@H](C(=O)N[C@@H](Cc1c[nH]c2ccccc12)C(=O)N[C@@H](Cc1c[nH]c2ccccc12)C(N)=O)[C@@H](C)O` (H-GWWKRIKTWW-NH2): the MIC (against Klebsiella pneumoniae; with Bacillus subtilis; against Pseudomonas aeruginosa [2]; in [3]; in the series with Escherichia coli; against Acinetobacter baumannii) was 8 µM (≈ 11.6 µg/mL) throughout. For the same compound, the MIC against Enterococcus faecalis was determined as 16 µM (≈ 23.1 µg/mL); against Staphylococcus aureus, 4 µM (≈ 5.78 µg/mL); with Bacteria [7], 8 µM (≈ 11.6 µg/mL); in the series on Fungi it was 7.34 µM (≈ 10.6 µg/mL); with Bacteria [9] it was 6.7 µM (≈ 9.69 µg/mL); with Bacteria [10], 7.34 µM (≈ 10.6 µg/mL). Besides, the FIC in the series on Pseudomonas aeruginosa [1] and with Pseudomonas aeruginosa [5] was 0.5 throughout. Moreover, the pIC50 in series [4] was 4.60. In the series with Erythrocyte, this compound had an MHC10 of 102.54 µM. Further, the selectivity ratio in series [6] stood at 15.3; in [11], 14; in [12], 14. The selectivity ratio at 18 h in series [8] was 12.8.
Turning to `CC[C@H](C)[C@H](NC(=O)[C@H](CCCNC(=N)N)NC(=O)[C@H](CCCCN)NC(=O)[C@H](Cc1ccccc1)NC(=O)[C@H](Cc1c[nH]c2ccccc12)NC(=O)[C@@H](N)CCCCN)C(=O)N[C@@H](CCCCN)C(=O)N[C@H](C(=O)N[C@@H](Cc1ccccc1)C(=O)N[C@@H](Cc1c[nH]c2ccccc12)C(N)=O)[C@@H](C)O` (H-KWFKRIKTFW-NH2), the MIC with Klebsiella pneumoniae is 32 µM (≈ 46 µg/mL); in the series on Bacillus subtilis, 16 µM (≈ 23 µg/mL); in the series with Pseudomonas aeruginosa [2] it was 16 µM (≈ 23 µg/mL); in series [3], 128 µM (≈ 184 µg/mL); against Escherichia coli, 16 µM (≈ 23 µg/mL); against Acinetobacter baumannii, 128 µM (≈ 184 µg/mL). Moreover, the MIC against Enterococcus faecalis is 64 µM (≈ 92.1 µg/mL); against Staphylococcus aureus, 16 µM (≈ 23 µg/mL); against Bacteria [7], 38.1 µM (≈ 54.8 µg/mL); against Fungi it was 32 µM (≈ 46 µg/mL); against Bacteria [10], 32 µM (≈ 46 µg/mL). Further, the FIC in the series on Pseudomonas aeruginosa [1] stood at 0.3125; in the series on Pseudomonas aeruginosa [5], 0.25. Besides, in series [4], the pIC50 was 4.10. In the series with Erythrocyte, the MHC10 result is recorded as “>= 512 uM”. In addition, the values for the selectivity ratio in series [6], in series [11] and in series [12] were 19, 16 and 16, respectively. The selectivity ratio at 18 h in series [8] is 13.4.
